{
  "source": "patent US8829007B2",
  "about": "(priority 2009, dated 2014)",
  "note": "pEC50: −log10 of the molar value.",
  "data": [
    {"tested_on": "A/PR/8/34 influenza virus", "test": "microbe, parasite or virus in culture", "type": "cell-based", "settings": "Influenza A virus, PR/8, MDCK, MDCK cells infected with A/PR/8/34; replication of influenza virus (viral RNA, bDNA); class symbols; read-out: EC50 (mean all)", "values": [
      {"molecule": "NC(=O)CN[C@@H]1CCC[C@H](Nc2nc(-c3c[nH]c4ncc(Cl)cc34)ncc2F)C1", "note": "[Compound 593]", "pEC50": "> 5.30"},
      {"molecule": "CS(=O)(=O)N[C@@H]1CCCC[C@H]1CNc1nc(-c2c[nH]c3ncc(Cl)cc23)ncc1F", "note": "(relative stereo) [Compound 557, N-(trans-2-((2-(5-chloro-1H-pyrrolo[2,3-b]pyridin-3-yl)-5-fluoropyrimidin-4-ylamino)methyl)cyclohexyl)methanesulfonamide]", "pEC50": "> 5.30"},
      {"molecule": "COC(=O)[C@H]1CCCC[C@@H]1Nc1nc(-c2c[nH]c3ncc(Cl)cc23)ncc1F", "note": "[Compound 575, (1S,2S)-methyl 2-(2-(5-chloro-1H-pyrrolo[2,3-b]pyridin-3-yl)-5-fluoropyrimidin-4-ylamino)cyclohexanecarboxylate]", "pEC50": "> 5.30"},
      {"molecule": "COCCOC(=O)N[C@@H]1CCC[C@H](Nc2nc(-c3c[nH]c4ncc(Cl)cc34)ncc2F)C1", "note": "[Compound 592, 2-methoxyethyl N-[(1R,3S)-3-[[2-(5-chloro-1H-pyrrolo[2,3-b]pyridin-3-yl)-5-fluoro-pyrimidin-4-yl]amino]cyclohexyl]carbamate]", "pEC50": "> 5.30"},
      {"molecule": "CC(C(=O)O)N1CCCC(Nc2nc(-c3c[nH]c4ncc(Cl)cc34)ncc2F)C1", "note": "[Compound 573, 2-((S)-3-((2-(5-chloro-1H-pyrrolo[2,3-b]pyridin-3-yl)-5-fluoropyrimidin-4-ylamino)piperidin-1-yl)propanoic acid]", "pEC50": "> 5.30"},
      {"molecule": "Fc1cnc(-c2c[nH]c3ncc(Cl)cc23)nc1N[C@H]1CCCN(Cc2ncc[nH]2)C1", "note": "[Compound 589, (S)—N-(1-((1H-imidazol-2-yl)methyl)piperidin-3-yl)-2-(5-chloro-1H-pyrrolo[2,3-b]pyridin-3-yl)-5-fluoropyrimidin-4-amine]", "pEC50": "> 5.30"},
      {"molecule": "CC(C)(C(=O)O)N1CCC[C@H](Nc2nc(-c3c[nH]c4ncc(Cl)cc34)ncc2F)C1", "note": "[Compound 590]", "pEC50": "< 5.48"},
      {"molecule": "COC1CCC[C@H](Nc2nc(-c3c[nH]c4ncc(Cl)cc34)ncc2F)C1", "note": "(stereo partly drawn) [Compound 552, 2-(5-chloro-1H-pyrrolo[2,3-b]pyridin-3-yl)-5-fluoro-N-((1S)-3-methoxycyclohexyl)pyrimidin-4-amine]", "pEC50": "> 5.30"},
      {"molecule": "C[C@@]1(C(=O)O)CCCC[C@H]1Nc1nc(-c2c[nH]c3ncc(Cl)cc23)ncc1F", "note": "(stereo in doubt) [Compound 582, Trans-2-(2-(5-chloro-1H-pyrrolo[2,3-b]pyridin-3-yl)-5-fluoropyrimidin-4-ylamino)-1-methylcyclohexanecarboxylic acid]", "pEC50": "> 5.30"}
    ]},
    {"tested_on": "A/PR/8/34 influenza virus", "test": "microbe, parasite or virus in culture", "type": "cell-based", "settings": "Influenza A virus, PR/8, MDCK, bDNA assay, A/PR/8/34 influenza virus replication in MDCK cells; class symbols; read-out: EC50 (mean all)", "values": [
      {"molecule": "Fc1cnc(-c2c[nH]c3ncc(Cl)cc23)nc1N[C@H]1CCCN(CC(F)(F)F)C1", "note": "[Compound 668, (S)-2-(5-chloro-1H-pyrrolo[2,3-b]pyridin-3-yl)-5-fluoro-N-(1-(2,2,2-trifluoroethyl)piperidin-3-yl)pyrimidin-4-amine]", "pEC50": "> 5.30"}
    ]},
    {"tested_on": "A/PR/8/34 influenza virus", "test": "microbe, parasite or virus in culture", "type": "cell-based", "settings": "Influenza A virus, PR/8, mean all; replication of A/PR/8/34 influenza virus (bDNA assay); read-out: EC50", "values": [
      {"molecule": "C[C@]1(C(=O)O)CCC[C@H](Nc2nc(-c3c[nH]c4ncc(Cl)cc34)ncc2F)[C@H]1O", "note": "(single isomer, unassigned) [Compound 928]", "pEC50": "> 5.30"},
      {"molecule": "C[C@@]1(C(N)=O)CCC[C@H](Nc2nc(-c3c[nH]c4ncc(Cl)cc34)ncc2F)C1", "note": "[Compound 924, (1R,3S)-3-[[2-(5-chloro-1H-pyrrolo[2,3-b]pyridin-3-yl)-5-fluoro-pyrimidin-4-yl]amino]-1-methyl-cyclohexanecarboxamide]", "pEC50": "> 5.30"}
    ]},
    {"tested_on": "A/PR/8/34 influenza virus", "test": "microbe, parasite or virus in culture", "type": "cell-based", "settings": "MDCK cells infected with A/PR/8/34; replication of influenza virus (viral RNA, bDNA); class symbols; read-out: EC50 (mean all)", "values": [
      {"molecule": "CC1(O)CCCCCC1Nc1nc(-c2c[nH]c3ncc(Cl)cc23)ncc1F", "note": "(stereo not drawn) [Compound 581]", "pEC50": "> 5.30"},
      {"molecule": "CC(=O)N[C@@H]1CCC[C@H](Nc2nc(-c3c[nH]c4ncc(Cl)cc34)ncc2F)C1", "note": "[Compound 547, N-[(1R,3S)-3-[[2-(5-chloro-1H-pyrrolo[2,3-b]pyridin-3-yl)-5-fluoro-pyrimidin-4-yl]amino]cyclohexyl]acetamide]", "pEC50": "> 5.30"}
    ]},
    {"tested_on": "A/PR/8/34 influenza virus", "test": "microbe, parasite or virus in culture", "type": "cell-based", "settings": "[…]; replication of influenza virus (viral RNA, bDNA); class symbols; read-out: EC50 (mean all)", "values": [
      {"molecule": "CC[C@]1(C(=O)O)CCCC[C@H]1Nc1nc(-c2c[nH]c3ncc(Cl)cc23)ncc1F", "note": "(relative stereo) [Compound 585, cis-2-(2-(5-chloro-1H-pyrrolo[2,3-b]pyridin-3-yl)-5-fluoropyrimidin-4-ylamino)-1-ethylcyclohexanecarboxylic acid]", "pEC50": "> 5.30"}
    ]}
  ]
}
